For test [1], the target named is T1, Melatonin receptor type 1B (Homo sapiens, UniProt P49286).
T1 sequence (P49286 whole entry): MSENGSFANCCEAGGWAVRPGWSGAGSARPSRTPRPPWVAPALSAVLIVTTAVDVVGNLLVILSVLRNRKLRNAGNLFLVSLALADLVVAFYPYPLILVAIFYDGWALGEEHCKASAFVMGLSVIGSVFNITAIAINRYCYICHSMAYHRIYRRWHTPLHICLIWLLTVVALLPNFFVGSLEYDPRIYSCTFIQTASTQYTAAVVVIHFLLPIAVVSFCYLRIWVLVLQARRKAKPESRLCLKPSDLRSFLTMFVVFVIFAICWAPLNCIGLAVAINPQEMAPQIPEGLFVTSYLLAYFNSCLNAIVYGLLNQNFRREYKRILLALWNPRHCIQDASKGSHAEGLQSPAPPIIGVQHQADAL
The test can be described thus: Displacement of 2-[125I]iodomelatonin from human cloned MT2 receptor expressed in mouse NIH-3T3 cell membrane. It counts as cell membranes, NIH3T3.

Test [2] deals with T2, Melatonin receptor type 1A (Homo sapiens, UniProt P48039). Kind of test: Intrinsic activity at human cloned MT1 receptor expressed in mouse NIH-3T3 cells assessed as stimulation of [35S]GTPgammaS binding relative to melatonin. It counts as functional, cell-based. As to conditions: NIH3T3. On the technique in general: GTPγS is a poorly hydrolysed GTP analogue; its binding reports G protein activation.

Test [3] addresses T3, Melatonin receptor type 1B (Homo sapiens) (UniProt P49286).
T3 sequence (whole entry): T1 sequence (P49286 whole entry)
The test can be described thus: Intrinsic activity at human cloned MT2 receptor expressed in mouse NIH-3T3 cells assessed as stimulation of [35S]GTPgammaS binding relative to melatonin. It counts as functional, cell-based. As to conditions: NIH3T3.

The species named for the next test is Homo sapiens. The test can be described thus: Selectivity index, ratio of Ki for human cloned MT2 receptor to Ki for human cloned MT1 receptor.
The target in test [4] is T2, Melatonin receptor type 1A. The test can be described thus: Displacement of 2-[125I]iodomelatonin from human cloned MT1 receptor expressed in mouse NIH-3T3 cell membrane. It counts as cell membranes, NIH3T3.

Molecules are shown by their SMILES.

T2 sequence (P48039 whole entry): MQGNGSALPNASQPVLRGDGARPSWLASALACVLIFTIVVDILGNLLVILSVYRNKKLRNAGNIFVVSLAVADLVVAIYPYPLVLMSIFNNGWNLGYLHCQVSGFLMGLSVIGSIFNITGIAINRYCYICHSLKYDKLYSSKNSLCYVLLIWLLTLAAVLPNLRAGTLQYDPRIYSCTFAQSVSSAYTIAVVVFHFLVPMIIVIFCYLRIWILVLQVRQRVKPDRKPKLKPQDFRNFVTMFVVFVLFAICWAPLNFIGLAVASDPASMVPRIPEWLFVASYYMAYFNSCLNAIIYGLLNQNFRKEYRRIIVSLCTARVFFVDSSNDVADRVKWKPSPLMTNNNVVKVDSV

In general, Ki refers to the equilibrium dissociation constant of an inhibitor or competing ligand from its target. Regarding `COc1cccc(N(CCCCCCCCCCN(CCNC(C)=O)c2cccc(OC)c2)CCNC(C)=O)c1`, the inhibition constant Ki in test [1] is 309 nM; in test [4], 380 nM. Also, the Intrinsic activity was 0.12 in test [2] and 0.37 in test [3]. Moreover, the Ratio Ki in the test filed under Homo sapiens came out at 0.8.

On to `CC(=O)NCCN(C)c1cccc(OCCCCCCCCOc2cccc(N(C)CCNC(C)=O)c2)c1`, for which the Ki is 93.3 nM in test [1] and 20 nM in test [4]. The Intrinsic activity came out at 0.47 in test [2] and 0.38 in test [3]. Besides, the Ratio Ki in the test filed under Homo sapiens turned out to be 4.7.

Turning to `CC(=O)NCCN(C)c1cccc(OCCCCCCOc2cccc(N(C)CCNC(C)=O)c2)c1`, the inhibition constant Ki was 182 nM in test [1] and 3.39 nM in test [4]. Also, the Intrinsic activity in test [2] is 0.44; in test [3] it was 0.33. The Ratio Ki in the test listed under Homo sapiens was found to be 54.

`COc1cccc(N(CCNC(C)=O)C(=O)CCCCC(=O)N(CCNC(C)=O)c2cccc(OC)c2)c1`: the inhibition constant Ki in test [1] is 245 nM; in test [4], 288 nM. The values for the Intrinsic activity in test [2] and in test [3] were 0.94 and 0.91, respectively. Besides, in the test listed under Homo sapiens, the Ratio Ki came to 0.85.

Regarding `CC(=O)NCCN(C)c1cccc(OCCCCCCCCCCOc2cccc(N(C)CCNC(C)=O)c2)c1`, the values for the inhibitory constant (Ki) in test [1] and in test [4] were 40.7 nM and 3.98 nM, respectively. The Intrinsic activity in test [2] came out at 0.42; in test [3] it was 0.57. Further, the Ratio Ki in the test filed under Homo sapiens amounted to 10.

As to `CC(=O)NCCN(C)c1cccc(OCCCCCOc2cccc(N(C)CCNC(C)=O)c2)c1`, the Ki in test [1] was 813 nM; in test [4], 57.5 nM. Besides, the figures for the Intrinsic activity in test [2] and in test [3] were 0.46 and 0.64, respectively. The Ratio Ki in the test filed under Homo sapiens amounted to 14.

On to `CC(=O)NCCN(C)c1cccc(OCCCOc2cccc(N(C)CCNC(C)=O)c2)c1`, for which the Ki in test [1] is 2090 nM; in test [4], 20.4 nM. The Intrinsic activity stood at 0.26 in test [2] and 0.33 in test [3]. In addition, in the test listed under Homo sapiens, the Ratio Ki is 102.

As for `CC(=O)NCCN(C)c1cccc(OCCCCOc2cccc(N(C)CCNC(C)=O)c2)c1`, the values for the inhibitory constant (Ki) in test [1] and in test [4] were 1000 nM and 42.7 nM, respectively. The Intrinsic activity came out at 0.21 in test [2] and 0.18 in test [3]. Further, in the test listed under Homo sapiens, the Ratio Ki stood at 23.

As to `CC(=O)NCCN(C)c1cccc(OCCCCCCOc2ccccc2)c1`, the inhibition constant Ki was 158 nM in test [1] and 14.5 nM in test [4]. Besides, the Intrinsic activity in test [2] was 0.49; in test [3], 0.54. For the same compound, in the test filed under Homo sapiens, the Ratio Ki was found to be 11.

With `COc1cccc(N(CCCCCCN(CCNC(C)=O)c2cccc(OC)c2)CCNC(C)=O)c1`, the inhibition constant Ki was 36.3 nM in test [1] and 741 nM in test [4]. The Intrinsic activity was -0.04 in test [2] and -0.09 in test [3]. The Ratio Ki in the test listed under Homo sapiens was found to be 0.05.
